Laboratory results as given in ChEMBL document CHEMBL5728220, “[1,3]thiazin-2-amine compound, application, and pharmaceutical composition” (2021).

Target: Beta-secretase 1 (Homo sapiens, UniProt P56817)
Experiment: Activity Assay: The activity assay for the compound of each example was carried out in this experimental example, and the detailed test method was as follows:1. The test compound was formulated as 10 μmol/L solution in dimethylsulfoxide;2. Starting from 10 μmol/L, by 3-fold serial dilution, the inhibitory activity of each compound against the enzyme was tested in singlet state at 10 doses;3. IC50 values of test compounds were finally obtained.

Chain of Beta-secretase 1 (P56817 whole entry): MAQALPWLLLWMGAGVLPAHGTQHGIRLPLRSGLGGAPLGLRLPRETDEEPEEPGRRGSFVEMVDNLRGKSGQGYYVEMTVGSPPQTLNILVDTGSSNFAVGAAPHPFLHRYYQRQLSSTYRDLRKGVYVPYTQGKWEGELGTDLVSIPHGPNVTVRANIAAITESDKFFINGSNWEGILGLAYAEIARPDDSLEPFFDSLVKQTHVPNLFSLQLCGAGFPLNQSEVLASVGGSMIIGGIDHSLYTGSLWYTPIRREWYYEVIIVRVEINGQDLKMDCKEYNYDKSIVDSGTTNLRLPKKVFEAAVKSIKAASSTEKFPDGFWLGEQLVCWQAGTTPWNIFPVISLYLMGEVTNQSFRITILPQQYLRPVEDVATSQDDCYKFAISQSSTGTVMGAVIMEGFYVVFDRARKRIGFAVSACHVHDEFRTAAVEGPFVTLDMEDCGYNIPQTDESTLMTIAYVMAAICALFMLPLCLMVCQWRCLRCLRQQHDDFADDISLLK

IC50: 213 nM
SMILES: C[C@H]1C[C@@]2(F)CSC(N)=N[C@@]2(c2cccc(NC(=O)c3ccc(Cl)cn3)c2)CO1
